This note sets out measurements from ChEMBL document CHEMBL1142902, “Inhibition of FLT3 and PDGFR tyrosine kinase activity by bis(benzo[b]furan-2-yl)methanones” (Bioorg Med Chem, 2007).

The target of test [1] is T1, Receptor-type tyrosine-protein kinase FLT3 (Homo sapiens, UniProt P36888).
T1 sequence (P36888 whole entry): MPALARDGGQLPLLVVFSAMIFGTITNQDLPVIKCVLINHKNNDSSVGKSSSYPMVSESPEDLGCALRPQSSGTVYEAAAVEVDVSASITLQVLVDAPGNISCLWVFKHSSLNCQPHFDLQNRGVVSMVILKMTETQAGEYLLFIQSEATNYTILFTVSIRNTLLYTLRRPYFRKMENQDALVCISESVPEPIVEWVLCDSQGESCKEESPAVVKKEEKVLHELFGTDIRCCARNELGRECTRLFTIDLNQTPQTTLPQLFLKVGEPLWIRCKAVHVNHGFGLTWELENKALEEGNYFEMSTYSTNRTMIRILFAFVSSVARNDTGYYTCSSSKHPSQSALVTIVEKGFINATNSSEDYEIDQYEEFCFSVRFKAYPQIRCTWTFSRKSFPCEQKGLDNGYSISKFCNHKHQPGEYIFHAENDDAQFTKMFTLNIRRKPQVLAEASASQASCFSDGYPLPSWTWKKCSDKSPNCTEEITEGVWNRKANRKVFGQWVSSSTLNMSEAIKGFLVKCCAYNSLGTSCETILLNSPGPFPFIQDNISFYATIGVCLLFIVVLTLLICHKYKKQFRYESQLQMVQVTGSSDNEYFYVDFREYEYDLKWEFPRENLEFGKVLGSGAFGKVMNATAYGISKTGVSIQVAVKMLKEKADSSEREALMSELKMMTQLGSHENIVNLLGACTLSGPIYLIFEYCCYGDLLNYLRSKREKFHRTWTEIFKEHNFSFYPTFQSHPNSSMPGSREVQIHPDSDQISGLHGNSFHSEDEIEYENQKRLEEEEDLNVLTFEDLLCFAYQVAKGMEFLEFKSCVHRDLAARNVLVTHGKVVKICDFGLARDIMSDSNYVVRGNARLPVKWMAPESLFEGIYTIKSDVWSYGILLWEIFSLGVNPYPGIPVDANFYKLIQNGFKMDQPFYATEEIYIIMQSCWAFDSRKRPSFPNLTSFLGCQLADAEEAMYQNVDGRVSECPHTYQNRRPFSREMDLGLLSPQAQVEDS
Kind of test: Inhibition of endogenous FLT3 autophosphorylation in EOL1 cells. Type of test: cell-based.

The target of test [2] is Platelet-derived growth factor receptor beta (Mus musculus, UniProt P05622). Kind of test: Inhibition of endogenous PDGFRbeta autophosphorylation in Swiss 3T3 fibroblasts.
Chain of Platelet-derived growth factor receptor beta (P05622 whole entry): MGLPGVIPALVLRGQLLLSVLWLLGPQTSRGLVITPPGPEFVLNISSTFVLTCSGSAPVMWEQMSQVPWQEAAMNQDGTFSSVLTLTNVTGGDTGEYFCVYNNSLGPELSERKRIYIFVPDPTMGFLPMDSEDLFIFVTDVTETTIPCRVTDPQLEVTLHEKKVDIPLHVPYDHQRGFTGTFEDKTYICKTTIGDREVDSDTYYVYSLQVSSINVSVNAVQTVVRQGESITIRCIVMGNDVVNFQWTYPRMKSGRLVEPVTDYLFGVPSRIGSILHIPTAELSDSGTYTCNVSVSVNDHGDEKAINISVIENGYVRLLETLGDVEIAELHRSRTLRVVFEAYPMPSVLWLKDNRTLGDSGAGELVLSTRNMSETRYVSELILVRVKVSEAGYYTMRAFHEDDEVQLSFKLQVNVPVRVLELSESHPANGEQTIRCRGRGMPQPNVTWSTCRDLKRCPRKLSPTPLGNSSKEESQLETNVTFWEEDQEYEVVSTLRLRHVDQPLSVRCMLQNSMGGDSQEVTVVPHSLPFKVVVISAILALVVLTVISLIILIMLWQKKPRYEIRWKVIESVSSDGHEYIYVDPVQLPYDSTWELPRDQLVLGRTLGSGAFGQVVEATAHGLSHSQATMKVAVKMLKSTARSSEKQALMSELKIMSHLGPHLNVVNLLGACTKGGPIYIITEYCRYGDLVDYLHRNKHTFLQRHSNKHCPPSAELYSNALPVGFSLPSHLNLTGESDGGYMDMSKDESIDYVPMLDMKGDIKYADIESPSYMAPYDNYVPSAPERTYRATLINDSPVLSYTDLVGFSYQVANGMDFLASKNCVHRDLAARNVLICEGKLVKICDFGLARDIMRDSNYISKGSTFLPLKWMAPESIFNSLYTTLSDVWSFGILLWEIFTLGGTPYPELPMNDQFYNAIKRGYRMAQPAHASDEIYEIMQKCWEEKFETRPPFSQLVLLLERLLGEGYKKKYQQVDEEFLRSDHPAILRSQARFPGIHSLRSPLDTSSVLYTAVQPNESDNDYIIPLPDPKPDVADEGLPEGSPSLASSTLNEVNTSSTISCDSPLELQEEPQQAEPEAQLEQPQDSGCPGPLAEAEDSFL

One may read the IC50 as the point on the concentration scale where inhibition reaches its midpoint. Turning to `O=C(c1cc2cccc(O)c2o1)c1cc2cccc(O)c2o1`, the figures for the IC50 in test [1] and in test [2] were above 30 µM and 20 µM, respectively.
In test [2], `O=C(c1cc2cc(O)ccc2o1)c1cc2cc(O)ccc2o1` gave an IC50 of 0.6 µM.
For `O=C(c1cc2ccccc2[nH]1)c1cc2ccccc2o1`, in test [2], half-maximal inhibition (IC50) was put at 1.07 µM.
On the same count and under the same terms, as for `Nc1ccc2oc(C(=O)c3cc4cc(N)ccc4o3)cc2c1`, the figure is 1.2 µM.
For the compound `COc1cccc2oc(C(=O)c3cc4c(OC)cccc4o3)cc12`, the concentration for half-maximal inhibition (IC50) in test [1] and in test [2] was above 30 µM in each case.
`O=C(c1cc2cc(O)ccc2[nH]1)c1cc2cc(O)ccc2o1` had an IC50 in test [2] of 0.2 µM.
Regarding `COc1ccc2cc(C(=O)c3cc4ccc(OC)cc4o3)oc2c1`, the IC50 in test [1] and in test [2] was above 30 µM in each case.
`CC(=O)Oc1ccc2oc(C(=O)c3cc4cc(OC(C)=O)ccc4o3)cc2c1` showed a concentration for half-maximal inhibition (IC50) in test [2] of 0.7 µM.
As for `O=C(c1cc2ccc(O)cc2o1)c1cc2ccc(O)cc2o1`, in test [2], the IC50 is 9.7 µM.
As for `Cc1cc2ncc(-c3ccccc3)nc2cc1C` [AG1295], the IC50 in test [2] amounted to 5.4 µM. Compared with the last compound, the IC50 is about 1.8-fold lower.
`O=C(c1cc2ccccc2o1)c1cc2ccccc2o1` had an IC50 in test [2] of 1.2 µM.
As to `COc1cccc2cc(C(=O)c3cc4cccc(OC)c4o3)oc12`, the IC50 in test [1] and in test [2] was above 30 µM throughout.
In the case of `COc1ccc2oc(C(=O)c3cc4cc(OC)ccc4o3)cc2c1`, the IC50 in test [1] is above 30 µM; in test [2], 1 µM.
